Assay results: article PMC9858427, “Design, synthesis and biological evaluation of 2-((4-sulfamoylphenyl)amino)-pyrrolo[2,3-d]pyrimidine derivatives as CDK inhibitors” (Journal of Enzyme Inhibition and Medicinal Chemistry, 2023)
Read-outs that look alike come from different tables or passages of the source.

Legend:
[1] = system: MIA PaCa-2 cells; assay: MTT proliferation assay in MIA PaCa-2 cells; type: cell-based, human; conditions: 72 h drug exposure
Experimental: (§1) The human pancreatic carcinoma MIA PaCa-2 was purchased from China Centre for Type Culture Collection, AsPC-1 and BxPC-3 cell Lines were purchased from Cell Centre of the Institute of Basic Medical Sciences, Chinese Academy of Medical Sciences and Peking Union Medical College. PANC-1 was kindly provided by Nankai Hospital (Tianjin, China). These cancer cell lines were cultured according to the manufacturer’s instruction.
(§2) Then 3-fold diluted concentrations of tested compound were added respectively which was dissolved by DMSO in the ratio of 1:1000. After indicated incubation period, MTT was added to each well and incubated for 4 h at 37 °C. Then, the supernatant was discarded gently, and the precipitate was dissolved in 100 µL of DMSO in each well. The absorbance (A) at 570 nm was detected with a microplate reader (Multiskan MK3; Thermo Fisher Scientific, MA, USA). Vehicle-treated cells were served as the control for the calculation of relative cell viability (%) of treated group at single concentration. IC50 value was calculated directly from the inhibition curve of serial dilution of test compound and was expressed as mean ± SD using the SPSS statistical software (SPSS17.0 Inc., Chicago, IL, USA).

[2] = target: CDK9/cyclinT1 (Homo sapiens, UniProt P50750); assay: CDK9/cyclinT1 Lance Ultra Assay, single concentration screen; type: biochemical; conditions: ATP concentration at Km; for inhibition at 0.05 µM: 50 nM, read-out: CDK9 inhibitory rate (%) @ 50nM; for CDK9 inhibitory rate (%) @ 50nM: 0.05 µM
Experimental: (§3) CDK kinase activity (IC50 values and inhibitory rate at single concentration) was measured using the kinase profiling services (Shanghai ChemPartner Co., Ltd). Compounds were sent to ChemPartner as a solution in DMSO at concentration of 10 mM.

[3] = Solubility / precipitation observations; type: physicochemical
[4] = target: CDK2 (Homo sapiens, UniProt P24941); assay: CDK2 kinase IC50, Mobility shift assay; type: biochemical
Experimental: as §3

[5] = target: CDK4 (Homo sapiens, UniProt P11802); assay: CDK4 kinase IC50, Mobility shift assay; type: biochemical
Experimental: as §3

[6] = target: CDK7 (Homo sapiens, UniProt P50613); assay: CDK7 kinase IC50, Mobility shift assay; type: biochemical
Experimental: as §3

[7] = target: CDK9 (Homo sapiens, UniProt P50750); assay: CDK9 kinase IC50, Mobility shift assay; type: biochemical
Experimental: as §3

[8] = system: AsPC-1; assay: MTT proliferation assay in AsPC-1 cells; type: cell-based; conditions: Homo sapiens, ASPC1; 72 h drug exposure
Experimental: as §1
as §2, with “Cells were planted in 96-well plates at a density of 3000–4000 cells per well and incubated at 37 °C in a humidified CO2 incubator for 24 h. Then 3-fold” for “Then 3-fold”

[9] = system: BxPC-3; assay: MTT proliferation assay in BxPC-3 cells; type: cell-based; conditions: Homo sapiens, 72 h drug exposure
Experimental: as §1
as §2, with “Cells were planted in 96-well plates at a density of 3000–4000 cells per well and incubated at 37 °C in a humidified CO2 incubator for 24 h. Then 3-fold” for “Then 3-fold”

[10] = system: PANC-1; assay: MTT proliferation assay in PANC-1 cells; type: cell-based; conditions: Homo sapiens, 72 h drug exposure
Experimental: as §1
as §2, with “Cells were planted in 96-well plates at a density of 3000–4000 cells per well and incubated at 37 °C in a humidified CO2 incubator for 24 h. Then 3-fold” for “Then 3-fold”

[11] = target: CDK1 (Homo sapiens, UniProt P06493); assay: CDK1 kinase IC50, Mobility shift assay; type: biochemical
Experimental: as §3

[12] = Oral PK study in rats; type: in vivo; conditions: male, SD, rat, plasma, 30 mg/kg
Experimental: Synthetic compound was administered as a suspension or solution in the saline with 5% DMSO and 5% Solutol. GCTB was dissolved in saline. All of the experiments were approved by the Institutional Animal Care and Use Committee of Institute of Medicinal Biotechnology. All experiments were carried out under ethics committee–approved protocols and in compliance with the guidelines for the care of laboratory animals of Institute of Medicinal Biotechnology, CAMS.
SD rats were purchased from Beijing Vital River Laboratory Animal Technology Co., Ltd and randomly divided into three groups (n = 3, male). The animals were housed under standard conditions and fastened for 12 h before the treatment. They had free access to water and consumed a standard laboratory diet from 4 h after administration. Blood was taken from the orbital venous plexus at 0, 0.083, 0.25, 0.5, 1, 2, 4, 6, 8, and 24 h after intragastric administration of the test compound (30 mg/kg). The blood samples were collected into heparin anticoagulated EP tubes and centrifuged at 8000 r/min for 5 min at 2−8 °C; the plasma was separated and stored at −70 °C for use. Plasma was centrifuged at 4000 rpm for 10 min at 2−8 °C and stored at −70 °C until analysis. Plasma samples were analysed by LC-MS/MS (AB Sciex API4000 QTRAP) equipped with an ESI ion resource and Analyst 1.5.1 software. The noncompartmental model analysis was used for calculating pharmacokinetic parameters with the WinNolin professional v6.3 program (Pharsight, USA).

Sequence of CDK4 (P11802 whole entry): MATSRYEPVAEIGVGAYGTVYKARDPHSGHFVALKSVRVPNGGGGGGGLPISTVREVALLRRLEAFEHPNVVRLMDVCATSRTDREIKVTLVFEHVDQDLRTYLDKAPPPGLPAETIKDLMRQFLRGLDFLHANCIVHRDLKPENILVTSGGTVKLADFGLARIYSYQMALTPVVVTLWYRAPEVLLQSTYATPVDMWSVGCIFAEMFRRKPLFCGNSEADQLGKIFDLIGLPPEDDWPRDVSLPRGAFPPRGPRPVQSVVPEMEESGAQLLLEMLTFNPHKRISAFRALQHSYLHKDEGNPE
Sequence of CDK4 (P30281 whole entry partner): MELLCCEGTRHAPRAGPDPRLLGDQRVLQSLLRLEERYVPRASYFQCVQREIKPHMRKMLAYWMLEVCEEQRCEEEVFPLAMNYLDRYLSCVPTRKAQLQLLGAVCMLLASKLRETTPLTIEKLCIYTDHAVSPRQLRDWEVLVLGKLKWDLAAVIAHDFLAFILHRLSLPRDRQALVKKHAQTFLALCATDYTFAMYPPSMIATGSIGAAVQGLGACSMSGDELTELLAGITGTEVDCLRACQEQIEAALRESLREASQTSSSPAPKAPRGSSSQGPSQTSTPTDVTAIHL
Sequence of CDK9 (P50750 whole entry): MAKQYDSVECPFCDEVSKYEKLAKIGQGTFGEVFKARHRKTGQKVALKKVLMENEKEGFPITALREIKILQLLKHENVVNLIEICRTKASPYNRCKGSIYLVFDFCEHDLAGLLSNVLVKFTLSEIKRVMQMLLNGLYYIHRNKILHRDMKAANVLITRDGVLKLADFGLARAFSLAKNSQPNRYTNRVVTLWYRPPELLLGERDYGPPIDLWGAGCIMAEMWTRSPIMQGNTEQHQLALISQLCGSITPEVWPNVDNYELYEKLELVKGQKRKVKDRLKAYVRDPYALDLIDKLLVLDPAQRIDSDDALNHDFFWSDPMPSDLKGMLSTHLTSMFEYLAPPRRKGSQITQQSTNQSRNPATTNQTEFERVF
Sequence of CDK9 (O60563 whole entry partner): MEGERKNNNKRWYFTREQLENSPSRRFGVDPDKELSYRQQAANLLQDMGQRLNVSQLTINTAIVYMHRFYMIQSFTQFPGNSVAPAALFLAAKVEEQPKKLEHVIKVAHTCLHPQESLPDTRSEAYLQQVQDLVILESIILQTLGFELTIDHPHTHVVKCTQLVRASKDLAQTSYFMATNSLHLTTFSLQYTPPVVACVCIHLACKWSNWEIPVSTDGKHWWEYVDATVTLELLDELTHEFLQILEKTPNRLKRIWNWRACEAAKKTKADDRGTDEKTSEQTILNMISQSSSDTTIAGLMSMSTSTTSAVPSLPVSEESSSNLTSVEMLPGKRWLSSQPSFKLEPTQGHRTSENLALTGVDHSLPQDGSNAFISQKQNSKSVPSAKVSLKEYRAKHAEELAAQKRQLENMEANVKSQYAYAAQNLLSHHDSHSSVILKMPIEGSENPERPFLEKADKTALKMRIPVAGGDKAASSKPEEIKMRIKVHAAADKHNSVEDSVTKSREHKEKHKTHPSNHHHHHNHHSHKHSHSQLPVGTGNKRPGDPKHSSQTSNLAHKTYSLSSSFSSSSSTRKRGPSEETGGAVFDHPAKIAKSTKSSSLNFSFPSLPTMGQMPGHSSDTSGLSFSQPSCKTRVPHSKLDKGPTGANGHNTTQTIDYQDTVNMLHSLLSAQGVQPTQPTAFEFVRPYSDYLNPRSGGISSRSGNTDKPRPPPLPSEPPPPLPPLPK
Sequence of CDK9/cyclinT1 (P50750 whole entry): as the sequence (P50750 whole entry) above
Sequence of CDK9/cyclinT1 (O60563 whole entry partner): as the sequence (O60563 whole entry partner) above
Sequence of CDK7 (P50613 whole entry): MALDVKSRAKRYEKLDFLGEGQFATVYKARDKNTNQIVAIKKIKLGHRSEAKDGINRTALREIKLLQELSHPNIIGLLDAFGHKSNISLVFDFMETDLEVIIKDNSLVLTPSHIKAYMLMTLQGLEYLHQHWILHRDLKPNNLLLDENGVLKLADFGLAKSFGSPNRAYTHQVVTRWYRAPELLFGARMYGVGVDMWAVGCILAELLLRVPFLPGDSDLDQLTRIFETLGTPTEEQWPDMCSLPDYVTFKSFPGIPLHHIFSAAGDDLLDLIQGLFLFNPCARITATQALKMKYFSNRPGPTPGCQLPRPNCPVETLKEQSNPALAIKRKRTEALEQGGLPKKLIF
Sequence of CDK7 (P51946 whole entry partner): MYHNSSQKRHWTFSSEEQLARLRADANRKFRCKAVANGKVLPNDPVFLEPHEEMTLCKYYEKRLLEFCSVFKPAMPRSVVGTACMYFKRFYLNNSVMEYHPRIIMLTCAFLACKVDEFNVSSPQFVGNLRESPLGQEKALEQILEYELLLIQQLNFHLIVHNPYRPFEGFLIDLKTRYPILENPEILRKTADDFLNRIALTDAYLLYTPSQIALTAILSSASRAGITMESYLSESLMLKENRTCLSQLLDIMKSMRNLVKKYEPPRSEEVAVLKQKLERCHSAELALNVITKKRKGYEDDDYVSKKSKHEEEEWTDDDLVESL
Sequence of CDK7 (P51948 whole entry partner): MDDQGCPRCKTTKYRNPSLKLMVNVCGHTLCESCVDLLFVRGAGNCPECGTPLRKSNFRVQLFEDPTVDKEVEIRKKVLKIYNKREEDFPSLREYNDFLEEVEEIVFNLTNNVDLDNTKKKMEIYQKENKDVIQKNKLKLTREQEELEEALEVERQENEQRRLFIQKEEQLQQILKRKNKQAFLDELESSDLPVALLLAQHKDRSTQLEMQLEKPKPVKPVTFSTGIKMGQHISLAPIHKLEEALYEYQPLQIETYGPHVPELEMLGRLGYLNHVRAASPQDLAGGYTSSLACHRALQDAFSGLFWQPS
Sequence of CDK1 (P06493 whole entry): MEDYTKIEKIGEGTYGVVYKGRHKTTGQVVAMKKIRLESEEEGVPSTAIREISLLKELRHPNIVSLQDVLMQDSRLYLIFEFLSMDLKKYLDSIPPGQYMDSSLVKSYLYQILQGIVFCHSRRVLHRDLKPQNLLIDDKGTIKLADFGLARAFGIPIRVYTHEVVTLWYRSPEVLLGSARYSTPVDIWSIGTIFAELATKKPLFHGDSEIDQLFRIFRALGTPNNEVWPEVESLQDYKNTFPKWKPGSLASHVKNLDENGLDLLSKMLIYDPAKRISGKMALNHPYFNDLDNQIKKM
Sequence of CDK1 (P14635 whole entry partner): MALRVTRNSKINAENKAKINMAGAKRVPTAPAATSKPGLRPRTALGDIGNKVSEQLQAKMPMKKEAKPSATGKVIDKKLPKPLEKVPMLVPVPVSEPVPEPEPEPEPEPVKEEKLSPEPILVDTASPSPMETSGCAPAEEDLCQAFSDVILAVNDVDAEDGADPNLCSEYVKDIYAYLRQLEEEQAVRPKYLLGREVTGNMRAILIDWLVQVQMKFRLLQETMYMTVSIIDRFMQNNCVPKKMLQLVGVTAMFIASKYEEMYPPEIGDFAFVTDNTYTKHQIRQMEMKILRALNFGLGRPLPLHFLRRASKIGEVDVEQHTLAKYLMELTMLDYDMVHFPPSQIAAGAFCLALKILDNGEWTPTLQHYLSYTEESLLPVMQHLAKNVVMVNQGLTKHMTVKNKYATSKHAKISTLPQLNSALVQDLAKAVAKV

Row | Structure (SMILES) | IC50 ([1]; Homo sapiens, MIA PaCa-2, 72 h) [µM] | inhibition at 0.05 µM [2] [%] | IC50 [4] [nM] | IC50 [5] [nM] | IC50 [6] [nM] | IC50 [7] [nM] | further results
1 | CN(C)C(=O)c1cc2cnc(Nc3ccc(S(=O)(=O)Nc4ncccn4)cc3)nc2n1C1CCCC1 [compound 2b, 7-Cyclopentyl-N,N-dimethyl-2-((4-(N-(pyrimidin-2-yl)sulfamoyl)phenyl)amino)-7H-pyrrolo[2,3-d]pyrimidine-6-carboxamide] | > 10 | 98.7 | – | – | – | – | IC50 [1]: 14.3 ± 0.21 µM; solubility (in words) [3]: poor solubility
2 | CN(C)C(=O)c1cc2cnc(Nc3ccc(S(=O)(=O)Nc4ccc(Cl)cc4)cc3)nc2n1C1CCCC1 [2d, 2-((4-(N-(4-chlorophenyl)sulfamoyl)phenyl)amino)-7-cyclopentyl-N,N-dimethyl-7H-pyrrolo[2,3-d]pyrimidine-6-carboxamide] | 6.23 ± 1.25 | 91.8 | 7980 | 148 | > 10000 | 7.7 | –
3 | CN(C)C(=O)c1cc2cnc(Nc3ccccc3)nc2n1C1CCCC1 [compound 2h] | 45.1 ± 16.6 | 93.2 | – | – | – | – | –
4 | CN(C)C(=O)c1cc2cnc(Nc3ccc(S(=O)(=O)N4CCNCC4)cc3)nc2n1C1CCCC1.O=C(O)C(F)(F)F [compound 5b, 7-Cyclopentyl-N,N-dimethyl-2-((4-(piperazin-1-ylsulfonyl)phenyl)amino)-7H-pyrrolo[2,3-d]pyrimidine-6-carboxamide trifluoroacetate] | 0.94 ± 0.25 | 98.2 | 147 | 20 | 4970 | 3.2 | IC50 [8]: 1.48 ± 0.09 µM; IC50 [9]: 0.249 ± 0.099 µM; IC50 [10]: 5.81 ± 1.38 µM; IC50 [11]: 333 nM; Cmax ([12]; single oral administration, read-out: maximum plasma drug concentration (Cmax)): 1080 ng/mL; AUC ([12]; single oral administration, read-out: systematic exposure (AUC0‑t)): 4430 ng·h/mL; AUC(0-inf) ([12]; oral, n = 3): 4780 ± 2160 ng·h/mL; AUC(0-t) ([12]; oral, n = 3): 4430 ± 1620 ng·h/mL; MRT ([12]; oral, n = 3): 3.62 ± 0.83 h; Tmax ([12]; oral, n = 3): 1.17 h; half-life ([12]; oral, n = 3): 2.2 ± 0.9 h; Cmax ([12]; oral, n = 3, read-out: Cmax): 2000 nM
5 | CN(C)C(=O)c1cc2cnc(Nc3ccc(S(=O)(=O)N(C)C)cn3)nc2n1C1CCCC1 [2j] | 69.1 ± 15.5 | 25 | – | – | – | – | CDK9 inhibitory rate (%) @ 50nM [2]: 25.8%
6 | COc1ccccc1NC(=O)c1cc2cnc(Nc3ccc(S(=O)(=O)Nc4nc(C)cc(C)n4)cc3)nc2n1C1CCCC1 [10a, 7-Cyclopentyl-2-((4-(N-(4,6-dimethylpyrimidin-2-yl)sulfamoyl)phenyl)amino)-N-(2-methoxyphenyl)-7H-pyrrolo[2,3-d]pyrimidine-6-carboxamide] | 40.8 ± 3.26 | -3.1 | – | – | – | – | –
7 | Cc1ccnc(NS(=O)(=O)c2ccc(Nc3ncc4cc(C(=O)N(C)C)n(C5CCCC5)c4n3)cc2)n1 [2a, 7-cyclopentyl-N,N-dimethyl-2-((4-(N-(4-methylpyrimidin-2-yl)sulfamoyl)phenyl)amino)-7H-pyrrolo[2,3-d]pyrimidine-6-carboxamide] | > 10 | 100 | – | – | – | – | IC50 [1]: 13 ± 0.37 µM
8 | CN(C)C(=O)c1cc2cnc(Nc3ccc(S(=O)(=O)N4CCOCC4)cc3)nc2n1C1CCCC1 [5e, 7-Cyclopentyl-N,N-dimethyl-2-((4-(morpholinosulfonyl)phenyl)amino)-7H-pyrrolo[2,3-d]pyrimidine-6-carboxamide] | 4.35 ± 1.61 | 81.8 | 236 | 52 | > 10000 | 13 | IC50 [11]: 439 nM
9 | COc1ccccc1NC(=O)c1cc2cnc(Nc3ccc(S(=O)(=O)Nc4ncccn4)cc3)nc2n1C1CCCC1 [10b, 7-Cyclopentyl-N-(2-methoxyphenyl)-2-((4-(N-(pyrimidin-2-yl)sulfamoyl)phenyl)amino)-7H-pyrrolo[2,3-d]pyrimidine-6-carboxamide] | 80.8 ± 16 | 54 | – | – | – | – | CDK9 inhibitory rate (%) @ 50nM [2]: 54.4%
10 | CN(C)C(=O)c1cc2cnc(Nc3ccc(S(N)(=O)=O)cn3)nc2n1C1CCCC1 [compound 2i, 7-Cyclopentyl-N,N-dimethyl-2-((5-sulfamoylpyridin-2-yl)amino)-7H-pyrrolo[2,3-d]pyrimidine-6-carboxamide] | > 100 | 27 | – | – | – | – | CDK9 inhibitory rate (%) @ 50nM [2]: 27.4%
11 | CN(C)C(=O)c1cc2cnc(Nc3ccc(S(=O)(=O)N(C)C)cc3)nc2n1C1CCCC1 [2e, 7-Cyclopentyl-2-((4-(N,N-dimethylsulfamoyl)phenyl)amino)-N,N-dimethyl-7H-pyrrolo[2,3-d]pyrimidine-6-carboxamide] | 10.5 ± 0.74 | 89.3 | – | – | – | – | –
12 | CC1CCN(S(=O)(=O)c2ccc(Nc3ncc4cc(C(=O)N(C)C)n(C5CCCC5)c4n3)cc2)CC1 [5d, 7-Cyclopentyl-N,N-dimethyl-2-((4-((4-methylpiperidin-1-yl)sulphonyl)phenyl)amino)-7H-pyrrolo[2,3-d]pyrimidine-6-carboxamide] | 2.85 ± 0.52 | 80.6 | 2340 | 170 | > 10000 | 20 | IC50 [11]: 906 nM
13 | CN(C)C(=O)c1cc2cnc(Nc3ccc(N4CCNCC4)cn3)nc2n1C1CCCC1 [Ribociclib, reference compound] | 16.5 ± 7 | 16.9 | – | – | – | – | –
14 | CN(C)C(=O)c1cc2cnc(Nc3ccc(S(C)(=O)=O)cc3)nc2n1C1CCCC1 [2f, 7-Cyclopentyl-N,N-dimethyl-2-((4-(methylsulfonyl)phenyl)amino)-7H-pyrrolo[2,3-d]pyrimidine-6-carboxamide] | 18.9 ± 2.12 | 96.5 | – | – | – | – | –
15 | CN1CCN(S(=O)(=O)c2ccc(Nc3ncc4cc(C(=O)N(C)C)n(C5CCCC5)c4n3)cc2)CC1 [5c, 7-Cyclopentyl-N,N-dimethyl-2-((4-((4-methylpiperazin-1-yl)sulphonyl)phenyl)amino)-7H-pyrrolo[2,3-d]pyrimidine-6-carboxamide] | 7.8 ± 1.04 | 99.1 | 227 | 35 | > 10000 | 6.3 | IC50 [11]: 550 nM
